molecular target: T1, human PAH with the R408W mutation (Homo sapiens, UniProt P00439, R408W); experiment: Cell Based Phenylalanine Flux Assay; conditions: A375 cells expressing R408W PAH; 24 hrs with compound, then 20 µM sepiapterin and 800 µM 13C9,15N-Phenylalanine for 4 hours; 13C-Tyrosine by LC-MS; average where tested multiple times; read-out: AC50;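 also: after compound treatment, cells received sepiapterin plus isotope-labelled Phenylalanine for 4 hours, then labelled Tyrosine in the medium was quantified, 10-point 2-fold dilution series run in duplicate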
T1 construct: expressed in transfected cells
T1 sequence (P00439 1-452 R408W): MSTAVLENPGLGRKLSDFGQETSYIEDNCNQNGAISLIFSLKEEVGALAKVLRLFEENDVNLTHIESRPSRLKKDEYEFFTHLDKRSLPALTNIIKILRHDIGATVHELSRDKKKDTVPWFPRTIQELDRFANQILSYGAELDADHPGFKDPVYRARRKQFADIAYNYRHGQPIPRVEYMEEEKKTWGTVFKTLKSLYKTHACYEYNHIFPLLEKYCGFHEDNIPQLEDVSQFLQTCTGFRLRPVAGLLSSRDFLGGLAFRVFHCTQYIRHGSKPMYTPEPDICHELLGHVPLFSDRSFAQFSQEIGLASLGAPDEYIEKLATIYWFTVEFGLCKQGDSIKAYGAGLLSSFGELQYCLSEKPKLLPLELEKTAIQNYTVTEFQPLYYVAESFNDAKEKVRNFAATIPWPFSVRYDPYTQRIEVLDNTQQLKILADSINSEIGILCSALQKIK

Q: For `Cc1c(C2c3nc[nH]c3CCN2C(=O)c2cnco2)nn2ccccc12` (centres unmarked), which AC50 is on record?
A: 1000 to 5000 nM

Q: For `O=C(c1ocnc1CC(F)F)N1CCc2[nH]cnc2C1c1cc2ccccn2n1` (centres unmarked), which AC50 is on record?
A: 1000 to 5000 nM

Q: For `CC(C)(C)c1nnc(C(=O)N2CCc3[nH]cnc3C2c2cc3cc(F)ccn3n2)o1` (centres unmarked), which AC50 is on record?
A: > 5000 nM

Q: Which AC50 does the source give for `COc1cccn2nc([C@@H]3c4nc[nH]c4CCN3c3nnc(C4CC4)o3)cc12` (single isomer, unassigned) here?
A: 1000 to 5000 nM

Q: For `Cc1ccn2nc(C3c4nc[nH]c4CCN3C(=O)c3nnc(C(C)(C)C)o3)cc2c1` (centres unmarked), which AC50 is on record?
A: 1000 to 5000 nM

Q: How did the AC50 turn out when `CN1CCN(c2nnc(C(=O)N3CCc4[nH]cnc4C3c3cc4ccccn4n3)o2)CC1` (centres unmarked) was run?
A: > 5000 nM

Q: Which AC50 does the source give for `Cc1nnc(C(=O)N2CCc3[nH]cnc3C2c2cc3cccc(C(F)(F)F)n3n2)o1` (centres unmarked) here?
A: 1000 to 5000 nM

Q: For `O=C(c1cnc(-c2ncccn2)o1)N1CCc2[nH]cnc2C1c1cc2c(C(F)(F)F)cccn2n1` (centres unmarked), which AC50 is on record?
A: 1000 to 5000 nM

Q: How did the AC50 turn out when `O=C(c1ccn[nH]1)N1CCc2[nH]cnc2C1c1cc2ccccn2n1` (centres unmarked) was run?
A: > 5000 nM

Q: How did the AC50 turn out when `COc1cccn2nc(C3c4nc[nH]c4CCN3C(=O)c3nnc(C)o3)cc12` (centres unmarked) was run?
A: 1000 to 5000 nM

Q: How did the AC50 turn out when `COc1cccn2nc(C3c4nc[nH]c4CCN3C(=O)c3oc(C(C)(C)O)nc3C(F)F)cc12` (centres unmarked) was run?
A: > 5000 nM

Q: For `Cc1nnc(C(=O)N2CCc3[nH]cnc3C2c2cc3cc(F)ccn3n2)o1` (centres unmarked), which AC50 is on record?
A: 1000 to 5000 nM

Q: How did the AC50 turn out when `O=C(c1nnc(-c2cnn(CC(F)F)c2)o1)N1CCc2[nH]cnc2C1c1cc2ccccn2n1` (centres unmarked) was run?
A: 1000 to 5000 nM

same assay, conditions: A375 cells expressing human PAH R408W; 24 hrs compound incubation; 13C-Tyrosine by LC-MS; average where tested multiple times; read-out: AC50

Q: How did the AC50 turn out when `O=C(c1oc(-c2ccccn2)nc1C1CC1)N1CCc2[nH]cnc2[C@@H]1c1cc2c(C(F)(F)F)cccn2n1` [Example 2125, (R)-(4-cyclopropyl-2-(pyridin-2-yl)oxazol-5-yl)(4-(4-(trifluoromethyl)pyrazolo[1,5-a]pyridin-2-yl)-1,4,6,7-tetrahydro-5H-imidazo[4,5-c]pyridin-5-yl)methanone] was run?
A: 1000 to 5000 nM

Q: Which AC50 does the source give for `CC(C)(C)c1nnc(N2CCc3[nH]cnc3[C@H]2c2cc3c(Cl)cccn3n2)o1` [Example 1833, (S)-2-(tert-butyl)-5-(4-(4-chloropyrazolo[1,5-a]pyridin-2-yl)-6,7-dihydro-1H-imidazo[4,5-c]pyridin-5(4H)-yl)-1,3,4-oxadiazole] here?
A: 500 to 1000 nM

Q: With `O=C(c1ocnc1C1CC1)N1CCc2[nH]cnc2[C@H]1c1cc2cccc(C(F)F)n2n1` [Example 2112, (S)-(4-cyclopropyloxazol-5-yl)(4-(7-(difluoromethyl)pyrazolo[1,5-a]pyridin-2-yl)-1,4,6,7-tetrahydro-5H-imidazo[4,5-c]pyridin-5-yl)methanone] as the molecule, how does the AC50 read?
A: 500 to 1000 nM

Q: `Cc1ccc2cc([C@@H]3c4nc[nH]c4CCN3C(=O)c3nnc(-c4cnn(C)c4)o3)nn2c1` [Example 2380, (S)-(5-(1-methyl-1H-pyrazol-4-yl)-1,3,4-oxadiazol-2-yl)(4-(6-methylpyrazolo[1,5-a]pyridin-2-yl)-6,7-dihydro-1H-imidazo[4,5-c]pyridin-5(4H)-yl)methanone] was tested. Which AC50 did it give?
A: 1000 to 5000 nM

Q: `Cc1cccn2nc([C@@H]3c4nc[nH]c4CCN3c3ccccc3)cc12` [Example 2311, (S)-4-(4-methylpyrazolo[1,5-a]pyridin-2-yl)-5-phenyl-4,5,6,7-tetrahydro-1H-imidazo[4,5-c]pyridine] was tested. Which AC50 did it give?
A: < 500 nM

Q: How did the AC50 turn out when `O=C(c1oc(-c2ccccn2)nc1C1CC1)N1CCc2[nH]cnc2[C@@H]1c1cc2c(C(F)F)cccn2n1` [Example 2123, (R)-(4-cyclopropyl-2-(pyridin-2-yl)oxazol-5-yl)(4-(4-(difluoromethyl)pyrazolo[1,5-a]pyridin-2-yl)-1,4,6,7-tetrahydro-5H-imidazo[4,5-c]pyridin-5-yl)methanone] was run?
A: 1000 to 5000 nM

Q: Which AC50 does the source give for `Fc1cccc(F)c1-c1nnc(N2CCc3[nH]cnc3[C@H]2c2cc3cccc(Cl)n3n2)o1` [Example 2089, (S)-2-(4-(7-chloropyrazolo[1,5-a]pyridin-2-yl)-1,4,6,7-tetrahydro-5H-imidazo[4,5-c]pyridin-5-yl)-5-(2,6-difluorophenyl)-1,3,4-oxadiazole] here?
A: < 500 nM

same assay, conditions: A375 cells expressing human R408W PAH; 24 hrs compound incubation; 13C-Tyrosine by LC-MS; average where tested multiple times; read-out: AC50

Q: With `FC(F)c1cccc2cc([C@@H]3c4nc[nH]c4CCN3c3nnc(-c4ccccn4)o3)nn12` [Example 1626, (S)-2-(4-(7-(difluoromethyl)pyrazolo[1,5-a]pyridin-2-yl)-6,7-dihydro-1H-imidazo[4,5-c]pyridin-5(4H)-yl)-5-(pyridin-2-yl)-1,3,4-oxadiazole] as the molecule, how does the AC50 read?
A: 500 to 1000 nM

Q: For `Cc1cccc2cc([C@H]3c4nc[nH]c4CCN3c3nnc(C(F)F)o3)nn12` [Example 1740, (R)-2-(difluoromethyl)-5-(4-(7-methylpyrazolo[1,5-a]pyridin-2-yl)-6,7-dihydro-1H-imidazo[4,5-c]pyridin-5(4H)-yl)-1,3,4-oxadiazole], which AC50 is on record?
A: > 5000 nM

Q: `Cc1c(-c2nnc(C(=O)N3CCc4[nH]cnc4[C@@H]3c3cc4c(F)cccn4n3)o2)cnn1C` [Example 955, (R)-(5-(1,5-dimethyl-1H-pyrazol-4-yl)-1,3,4-oxadiazol-2-yl)(4-(4-fluoropyrazolo[1,5-a]pyridin-2-yl)-6,7-dihydro-1H-imidazo[4,5-c]pyridin-5(4H)-yl)methanone] was tested. Which AC50 did it give?
A: > 5000 nM

Q: `Cc1ncccc1-c1nnc(C(=O)N2CCc3[nH]cnc3[C@@H]2c2cc3cccc(C(F)(F)F)n3n2)o1` [Example 1343, (R)-(5-(2-methylpyridin-3-yl)-1,3,4-oxadiazol-2-yl)(4-(7-(trifluoromethyl)pyrazolo[1,5-a]pyridin-2-yl)-6,7-dihydro-1H-imidazo[4,5-c]pyridin-5(4H)-yl)methanone] was tested. Which AC50 did it give?
A: 1000 to 5000 nM

Q: How did the AC50 turn out when `CC(C)(O)c1nc(Br)c(C(=O)N2CCc3[nH]cnc3[C@@H]2c2cc3c(F)cccn3n2)o1` [Example 747, (R)-(4-bromo-2-(2-hydroxypropan-2-yl)oxazol-5-yl)(4-(4-fluoropyrazolo[1,5-a]pyridin-2-yl)-6,7-dihydro-1H-imidazo[4,5-c]pyridin-5(4H)-yl)methanone] was run?
A: > 5000 nM

Q: How did the AC50 turn out when `COc1ccc(-c2nnc(C(=O)N3CCc4[nH]cnc4[C@@H]3c3cc4c(C)cccn4n3)o2)nc1` [Example 816, (R)-(5-(5-methoxypyridin-2-yl)-1,3,4-oxadiazol-2-yl)(4-(4-methylpyrazolo[1,5-a]pyridin-2-yl)-6,7-dihydro-1H-imidazo[4,5-c]pyridin-5(4H)-yl)methanone] was run?
A: > 5000 nM

Q: How did the AC50 turn out when `Cn1cc(-c2nc(C(F)F)c(C(=O)N3CCc4[nH]cnc4[C@H]3c3cc4c(F)cccn4n3)o2)cn1` [Example 902, (S)-(4-(difluoromethyl)-2-(1-methyl-1H-pyrazol-4-yl)oxazol-5-yl)(4-(4-fluoropyrazolo[1,5-a]pyridin-2-yl)-6,7-dihydro-1H-imidazo[4,5-c]pyridin-5(4H)-yl)methanone] was run?
A: < 500 nM

Q: Which AC50 does the source give for `Cc1cccc2cc([C@@H]3c4nc[nH]c4CCN3C(=O)c3oc(C(C)(C)O)nc3C(F)F)nn12` [Example 794, (S)-(4-(difluoromethyl)-2-(2-hydroxypropan-2-yl)oxazol-5-yl)(4-(7-methylpyrazolo[1,5-a]pyridin-2-yl)-6,7-dihydro-1H-imidazo[4,5-c]pyridin-5(4H)-yl)methanone] here?
A: < 500 nM

Q: `O=C(c1nnc(-c2cccnc2)o1)N1CCc2[nH]cnc2[C@H]1c1cc2c(F)cccn2n1` [Example 896, (S)-(4-(4-fluoropyrazolo[1,5-a]pyridin-2-yl)-6,7-dihydro-1H-imidazo[4,5-c]pyridin-5(4H)-yl)(5-(pyridin-3-yl)-1,3,4-oxadiazol-2-yl)methanone] was tested. Which AC50 did it give?
A: < 500 nM

Q: For `Cc1cccc2cc([C@@H]3c4nc[nH]c4CCN3C(=O)c3nnc(-c4cccnc4)o3)nn12` [Example 1308, (S)-(4-(7-methylpyrazolo[1,5-a]pyridin-2-yl)-6,7-dihydro-1H-imidazo[4,5-c]pyridin-5(4H)-yl)(5-(pyridin-3-yl)-1,3,4-oxadiazol-2-yl)methanone], which AC50 is on record?
A: < 500 nM

Q: How did the AC50 turn out when `Cc1cccn2nc([C@@H]3c4nc[nH]c4CCN3c3nnc(C(F)F)o3)cc12` [Example 1711, (S)-2-(difluoromethyl)-5-(4-(4-methylpyrazolo[1,5-a]pyridin-2-yl)-6,7-dihydro-1H-imidazo[4,5-c]pyridin-5(4H)-yl)-1,3,4-oxadiazole] was run?
A: 500 to 1000 nM

Q: `O=C(c1ccnn1C(F)(F)F)N1CCc2[nH]cnc2[C@H]1c1cc2c(F)cccn2n1` [Example 842, (S)-(4-(4-fluoropyrazolo[1,5-a]pyridin-2-yl)-6,7-dihydro-1H-imidazo[4,5-c]pyridin-5(4H)-yl)(1-(trifluoromethyl)-1H-pyrazol-5-yl)methanone] was tested. Which AC50 did it give?
A: < 500 nM

Q: For `O=C(c1nnc(-c2ncccn2)o1)N1CCc2[nH]cnc2[C@H]1c1cc2c(F)cccn2n1` [Example 1313, (S)-(4-(4-fluoropyrazolo[1,5-a]pyridin-2-yl)-6,7-dihydro-1H-imidazo[4,5-c]pyridin-5(4H)-yl)(5-(pyrimidin-2-yl)-1,3,4-oxadiazol-2-yl)methanone], which AC50 is on record?
A: 500 to 1000 nM

Q: How did the AC50 turn out when `CC(O)c1nc(Br)c(C(=O)N2CCc3[nH]cnc3[C@H]2c2cc3ccccn3n2)o1` (single isomer, unassigned) [Example 996] was run?
A: < 500 nM

Q: Which AC50 does the source give for `O=C(c1ocnc1C(F)(F)F)N1CCc2[nH]cnc2[C@@H]1c1cc2c(F)cccn2n1` [Example 773, (R)-(4-(4-fluoropyrazolo[1,5-a]pyridin-2-yl)-6,7-dihydro-1H-imidazo[4,5-c]pyridin-5(4H)-yl)(4-(trifluoromethyl)oxazol-5-yl)methanone] here?
A: 500 to 1000 nM

Reference: US20230365592A1 (Agios Pharmaceuticals, Inc., priority 2022, published 2023)
